Earlier results in US7534771B2, “Tricyclic-nucleoside prodrugs for treating viral infections” (SmithKline Beecham Corporation, priority 2005, dated 2009).

Settings: patients treated at currently recommended doses

Q: For NC(=O)c1ncn([C@@H]2O[C@H](CO)[C@@H](O)[C@H]2O)n1 [Ribavirin], which “patients with significant hemolysis” value is on record?
A: The value was 10-20%.
